{
  "source": "patent US4517181A",
  "about": "“Mammalian PGRF” (The Salk Institute for Biological Studies, priority 1982, dated 1985)",
  "key": {"[1]": {"tested_on": "cells of rat pituitary glands", "assay": "in vitro GH release, rat pituitary cell monolayer culture bioassay (ir GH by radioimmunoassay)", "assay_type": "cell-based", "method": "To determine the effectiveness of the peptides to promote the release of growth hormone, in vitro assays are carried out using synthetic PGRF (1-40) of Example II in side-by-side comparison with equimolar concentrations of the extracted and purified native PGRF (1-40) and of a GRF Reference Standard having a known effectiveness to promote the release of growth hormone from pituitary cells. The GRF Reference standard is described and defined in Brazeau, et al., Endocrinology, Vol. 110, A538(1982) and is an amount of a preparation of rat hypothalamic origin that produces a half-maximal response in terms of GH release in a pituitary cell monolayer bioassay. Cultures are used which include cells of rat pituitary glands removed some four to five days previously. Both cultures of a defined standard medium and cultures which are considered optimal for the secretion of growth hormone are used for the comparative testing, in the general manner described in Brazeau, et al. Regulatory Peptides, 1, 255, 1981. Incubation with the substance to be tested is carried out for 3 to 4 hours, and aliquots of the culture medium are removed and processed to measure their contents in inmunoreactive GH(ir GH) by a well-characterized radioimmunoassay.\nThe in vitro assays described in Example VII are repeated using Native PGRF(1-40) and Native PGRF(1-44) and the results are set forth in following Table III: […]"}, "[2]": {"tested_on": "pituitary growth hormone release (serum ir-GH)", "assay": "in vivo release of pituitary growth hormone after one single intravenous injection in normal rats", "set-up": "species or system rat", "details": "for serum ir-GH: rat", "text": "In addition to the in vitro tests for secretion of growth hormone, in vivo experiments were also run by injecting the synthetic peptide into normal male rats about 200 g. body weight, anesthetized with pentobarbital."}},
  "data": [
    {"smiles": "CC[C@H](C)[C@H](NC(=O)[C@H](C)NC(=O)[C@H](CC(=O)O)NC(=O)[C@H](C)NC(=O)[C@@H](N)Cc1ccc(O)cc1)C(=O)N[C@@H](Cc1ccccc1)C(=O)N[C@H](C(=O)N[C@@H](CC(N)=O)C(=O)N[C@@H](CO)C(=O)N[C@@H](Cc1ccc(O)cc1)C(=O)N[C@@H](CCCNC(=N)N)C(=O)N[C@@H](CCCCN)C(=O)N[C@H](C(=O)N[C@@H](CC(C)C)C(=O)NCC(=O)N[C@@H](CCC(N)=O)C(=O)N[C@@H](CC(C)C)C(=O)N[C@@H](CO)C(=O)N[C@@H](C)C(=O)N[C@@H](CCCNC(=N)N)C(=O)N[C@@H](CCCCN)C(=O)N[C@@H](CC(C)C)C(=O)N[C@@H](CC(C)C)C(=O)N[C@@H](CCC(N)=O)C(=O)N[C@@H](CC(=O)O)C(=O)N[C@H](C(=O)N[C@@H](CCSC)C(=O)N[C@@H](CO)C(=O)N[C@@H](CCCNC(=N)N)C(=O)N[C@@H](CCC(N)=O)C(=O)N[C@@H](CCC(N)=O)C(=O)NCC(=O)N[C@@H](CCC(=O)O)C(=O)N[C@@H](CO)C(=O)N[C@@H](CC(N)=O)C(=O)N[C@@H](CCC(N)=O)C(=O)N[C@@H](CCC(=O)O)C(=O)N[C@@H](CCCNC(=N)N)C(=O)NCC(=O)N[C@@H](C)C(=O)N[C@@H](CCCNC(=N)N)C(=O)N[C@@H](C)C(=O)N[C@@H](CCCNC(=N)N)C(=O)N[C@@H](CC(C)C)C(N)=O)[C@@H](C)CC)C(C)C)[C@@H](C)O", "note": "[synthetic PGRF(1-44)-amide, PGRF(1-44)-amide]", "values": [
      {"measurement": "potency compared with native PGRF(1-44) (further testing)", "setting": "[1]", "result": "substantially the same potency as native PGRF(1-44)"},
      {"measurement": "GH-releasing activity when injected in laboratory animals (rats)", "setting": "[2]; compared with PGRF(1-40) in Table II", "result": "shows the same type of GH-releasing activity as PGRF(1-40)"}
    ]},
    {"smiles": "CC[C@H](C)[C@H](NC(=O)[C@H](C)NC(=O)[C@H](CC(=O)O)NC(=O)[C@H](C)NC(=O)[C@@H](N)Cc1ccc(O)cc1)C(=O)N[C@@H](Cc1ccccc1)C(=O)N[C@H](C(=O)N[C@@H](CC(N)=O)C(=O)N[C@@H](CO)C(=O)N[C@@H](Cc1ccc(O)cc1)C(=O)N[C@@H](CCCNC(=N)N)C(=O)N[C@@H](CCCCN)C(=O)N[C@H](C(=O)N[C@@H](CC(C)C)C(=O)NCC(=O)N[C@@H](CCC(N)=O)C(=O)N[C@@H](CC(C)C)C(=O)N[C@@H](CO)C(=O)N[C@@H](C)C(=O)N[C@@H](CCCNC(=N)N)C(=O)N[C@@H](CCCCN)C(=O)N[C@@H](CC(C)C)C(=O)N[C@@H](CC(C)C)C(=O)N[C@@H](CCC(N)=O)C(=O)N[C@@H](CC(=O)O)C(=O)N[C@H](C(=O)N[C@@H](CCSC)C(=O)N[C@@H](CO)C(=O)N[C@@H](CCCNC(=N)N)C(=O)N[C@@H](CCC(N)=O)C(=O)N[C@@H](CCC(N)=O)C(=O)NCC(=O)N[C@@H](CCC(=O)O)C(=O)N[C@@H](CO)C(=O)N[C@@H](CC(N)=O)C(=O)N[C@@H](CCC(N)=O)C(=O)N[C@@H](CCC(=O)O)C(=O)N[C@@H](CCCNC(=N)N)C(=O)NCC(=O)N[C@@H](C)C(=O)O)[C@@H](C)CC)C(C)C)[C@@H](C)O", "note": "[Synthetic PGRF (1-40), PGRF (1-40)]", "values": [
      {"measurement": "ED50", "setting": "[1]; GH release in vitro, Example VII", "result": "about 113 picograms"},
      {"measurement": "GH secretion in vitro % of controls", "setting": "[1]; Table I, 10 fmoles", "result": "269 ± 20 % of controls"},
      {"measurement": "GH secretion in vitro % of controls", "setting": "[1]; Table I, 100 fmoles", "result": "701 ± 6 % of controls"},
      {"measurement": "GH secretion in vitro % of controls", "setting": "[1]; Table I, 1000 fmoles", "result": "990 ± 42 % of controls"},
      {"measurement": "biological activity compared with the native peptide", "setting": "[1]; equimolar ratios, Example VII", "result": "has the full biological activity of the native peptide"},
      {"measurement": "serum ir-GH", "setting": "[2]; 0.01 μg i.v., +5 min", "result": "284 ± 20", "unit": "nanograms/ml"},
      {"measurement": "serum ir-GH", "setting": "[2]; 0.01 μg i.v., +10 min", "result": "238 ± 51", "unit": "nanograms/ml"},
      {"measurement": "serum ir-GH", "setting": "[2]; 0.01 μg i.v., +15 min", "result": "201 ± 47", "unit": "nanograms/ml"},
      {"measurement": "serum ir-GH", "setting": "[2]; 0.01 μg i.v., +30 min", "result": "261 ± 50", "unit": "nanograms/ml"},
      {"measurement": "serum ir-GH", "setting": "[2]; 0.01 μg i.v., +60 min", "result": "299 ± 25", "unit": "nanograms/ml"},
      {"measurement": "serum ir-GH", "setting": "[2]; 0.01 μg i.v., -1 min (before injection)", "result": "173 ± 23", "unit": "nanograms/ml"},
      {"measurement": "serum ir-GH", "setting": "[2]; 0.1 μg i.v., +5 min", "result": "694 ± 246", "unit": "nanograms/ml"},
      {"measurement": "serum ir-GH", "setting": "[2]; 0.1 μg i.v., +10 min", "result": "582 ± 290", "unit": "nanograms/ml"},
      {"measurement": "serum ir-GH", "setting": "[2]; 0.1 μg i.v., +15 min", "result": "758 ± 562", "unit": "nanograms/ml"},
      {"measurement": "serum ir-GH", "setting": "[2]; 0.1 μg i.v., +30 min", "result": "280 ± 70", "unit": "nanograms/ml"},
      {"measurement": "serum ir-GH", "setting": "[2]; 0.1 μg i.v., +60 min", "result": "424 ± 129", "unit": "nanograms/ml"},
      {"measurement": "serum ir-GH", "setting": "[2]; 0.1 μg i.v., -1 min (before injection)", "result": "276 ± 126", "unit": "nanograms/ml"},
      {"measurement": "serum ir-GH", "setting": "[2]; 1.0 μg i.v., +5 min", "result": "4551 ± 1825", "unit": "nanograms/ml"},
      {"measurement": "serum ir-GH", "setting": "[2]; 1.0 μg i.v., +10 min", "result": "1748 ± 564", "unit": "nanograms/ml"},
      {"measurement": "serum ir-GH", "setting": "[2]; 1.0 μg i.v., +15 min", "result": "730 ± 158", "unit": "nanograms/ml"},
      {"measurement": "serum ir-GH", "setting": "[2]; 1.0 μg i.v., +30 min", "result": "234 ± 53", "unit": "nanograms/ml"},
      {"measurement": "serum ir-GH", "setting": "[2]; 1.0 μg i.v., +60 min", "result": "267 ± 129", "unit": "nanograms/ml"},
      {"measurement": "serum ir-GH", "setting": "[2]; 1.0 μg i.v., -1 min (before injection)", "result": "142 ± 24", "unit": "nanograms/ml"},
      {"measurement": "serum ir-GH", "setting": "[2]; 10.0 μg i.v., +5 min", "result": "7077 ± 1943", "unit": "nanograms/ml"},
      {"measurement": "serum ir-GH", "setting": "[2]; 10.0 μg i.v., +10 min", "result": "4676 ± 585", "unit": "nanograms/ml"},
      {"measurement": "serum ir-GH", "setting": "[2]; 10.0 μg i.v., +15 min", "result": "2464 ± 378", "unit": "nanograms/ml"},
      {"measurement": "serum ir-GH", "setting": "[2]; 10.0 μg i.v., +30 min", "result": "616 ± 112", "unit": "nanograms/ml"},
      {"measurement": "serum ir-GH", "setting": "[2]; 10.0 μg i.v., +60 min", "result": "223 ± 26", "unit": "nanograms/ml"},
      {"measurement": "serum ir-GH", "setting": "[2]; 10.0 μg i.v., -1 min (before injection)", "result": "234 ± 76", "unit": "nanograms/ml"}
    ]},
    {"smiles": "CC[C@H](C)[C@H](NC(=O)[C@H](C)NC(=O)[C@H](CC(=O)O)NC(=O)[C@H](C)NC(=O)[C@@H](N)Cc1ccc(O)cc1)C(=O)N[C@@H](Cc1ccccc1)C(=O)N[C@H](C(=O)N[C@@H](CC(N)=O)C(=O)N[C@@H](CO)C(=O)N[C@@H](Cc1ccc(O)cc1)C(=O)N[C@@H](CCCNC(=N)N)C(=O)N[C@@H](CCCCN)C(=O)N[C@H](C(=O)N[C@@H](CC(C)C)C(=O)NCC(=O)N[C@@H](CCC(N)=O)C(=O)N[C@@H](CC(C)C)C(=O)N[C@@H](CO)C(=O)N[C@@H](C)C(=O)N[C@@H](CCCNC(=N)N)C(=O)N[C@@H](CCCCN)C(=O)N[C@@H](CC(C)C)C(=O)N[C@@H](CC(C)C)C(=O)N[C@@H](CCC(N)=O)C(=O)N[C@@H](CC(=O)O)C(=O)N[C@H](C(=O)N[C@@H](CCSC)C(=O)N[C@@H](CO)C(=O)N[C@@H](CCCNC(=N)N)C(=O)N[C@@H](CCC(N)=O)C(=O)N[C@@H](CCC(N)=O)C(=O)NCC(=O)N[C@@H](CCC(=O)O)C(=O)N[C@@H](CO)C(=O)N[C@@H](CC(N)=O)C(=O)N[C@@H](CCC(N)=O)C(=O)N[C@@H](CCC(=O)O)C(=O)N[C@@H](CCCNC(=N)N)C(=O)NCC(=O)N[C@@H](C)C(=O)N[C@@H](CCCNC(=N)N)C(=O)N[C@@H](C)C(=O)N[C@@H](CCCNC(=N)N)C(=O)N[C@@H](CC(C)C)C(N)=O)[C@@H](C)CC)C(C)C)[C@@H](C)O", "note": "[Native PGRF (1-44)]", "values": [
      {"measurement": "GH secretion in vitro % of controls", "setting": "[1]; Table III, 6.3 femtomoles", "result": "289 ± 10 % of controls"},
      {"measurement": "GH secretion in vitro % of controls", "setting": "[1]; Table III, 12.5 femtomoles", "result": "391 ± 8 % of controls"},
      {"measurement": "GH secretion in vitro % of controls", "setting": "[1]; Table III, 25.0 femtomoles", "result": "479 ± 8 % of controls"},
      {"measurement": "GH secretion in vitro % of controls", "setting": "[1]; Table III, 50.0 femtomoles", "result": "561 ± 14 % of controls"},
      {"measurement": "GH secretion in vitro % of controls", "setting": "[1]; Table III, 100.0 femtomoles", "result": "599 ± 7 % of controls"},
      {"measurement": "GH secretion in vitro % of controls", "setting": "[1]; Table III, 200.0 femtomoles", "result": "606 ± 6 % of controls"},
      {"measurement": "GH secretion in vitro % of controls", "setting": "[1]; Table III, 400.0 femtomoles", "result": "610 ± 5 % of controls"},
      {"measurement": "Potency in terms of PGRF(1-40)", "setting": "[1]; confidence limits of 1.616 and 3.131, computer calculated (BIOPROG)", "result": "2.2261 ×PGRF(1-40)"},
      {"measurement": "Potency in terms of GRF Reference Standard", "setting": "[1]; per 1 femtomole, confidence limits of 0.122 and 0.239, computer calculated (BIOPROG)", "result": 0.1696, "unit": "unit"}
    ]}
  ]
}
